From patent US7994360B2, “Benzofuran compounds” (XTL Biopharmaceuticals Ltd., priority 2005, dated 2011)

Columns and labels:
[1] = system: HCV Replicon (HCV IRES driven luciferase reporter) in Huh-Luc-Neo cells; assay: HCV Replicon Luciferase Assay; conditions: Hepatitis C virus, 48 h, read-out: Luciferase IC50
[2] = system: HCV Replicon (HCV RNA) in Huh-Luc-Neo cells; assay: HCV Replicon RNA Assay (Taqman quantitative PCR of HCV RNA); assay type: cell-based; conditions: Hepatitis C virus, compound added day 0 and day 1, HCV RNA by quantitative PCR, no unit printed in table (text gives hit threshold in μM)
Description: Day 2, RNA Isolation and cDNA Synthesis: The cells are washed with 1× Phosphate Buffered Saline (PBS) once.

[3] = system: Huh-Luc-Neo cells; assay: CellTiter-Glo Cell Viability Assay; assay type: cell-based, human; conditions: inhibition of cell viability; for Toxicity % Inhibition at 50uM (2 doses): conditions identical to Replicon RNA assay; for Toxicity % Inhibition at 100 uM (1 dose): conditions identical to Luciferase assay (48 h)

CC(=O)c1ccc(-c2c(-c3ccccc3C(F)(F)F)oc3c(C#Cc4ccccc4Cl)cc(CO)cc23)cc1 [VQ–36167]
IC50 [1]: 12.2 µM | IC50 [2]: 1.61 µM | Toxicity % Inhibition at 50uM (2 doses) [3]: 20.2% | Toxicity % Inhibition at 100 uM (1 dose) [3]: 33.2%

CC(=O)c1ccc(-c2c(-c3ccccc3Cl)oc3c(C#Cc4ccccc4Cl)cc(CO)cc23)cc1 [VQ–36165]
IC50 [1]: 5.12 µM | IC50 [2]: 1.31 µM | Toxicity % Inhibition at 50uM (2 doses) [3]: 5.7% | Toxicity % Inhibition at 100 uM (1 dose) [3]: 10.5%
